According to the supplement of paper PMC10331698:
± gives the standard deviation of the averaged measurements.

Experiments:
Experiment in all cases: level (log10 ratio to DMSO vehicle control); higher = higher biomarker level / cell amount than vehicle control
[1] = compound: C=CC(=O)OCCC(F)(F)C(F)(F)C(F)(F)C(F)(F)C(F)(F)C(F)(F)C(F)(F)C(F)(F)F [8:2 Fluorotelomer acrylate]; conditions: in DMSO
Method: (§1)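 BioMAP Diversity Plus panel of 12 human primary cell co-culture systems (3C, 4H, LPS, SAg, BT, BF4T, BE3C, CASM3C, HDF3CGF, KF3CT, MyoF, Mphg). Compounds were added 1 h before stimulation and left for 24 h (MyoF 48 h; BT 72 h for soluble read-outs or 6 d for IgG). Biomarkers were read by ELISA, cytotoxicity by SRB, PBMC viability and proliferation by Alamar Blue. Each well value was divided by the mean of 8 DMSO control wells on the same plate and log10 transformed; duplicate blinded samples were tested at 4 concentrations.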

[2] = compound: FC(F)(I)C(F)(F)C(F)(F)C(F)(F)C(F)(F)C(F)(F)I [1,6-Diiodoperfluorohexane]; conditions: 6700 nM; in DMSO
Method: as §1

[3] = compound: O=C(CC(=O)C(F)(F)C(F)(F)C(F)(F)F)c1cccs1 [(Perfluorobutyryl)-2-thenoylmethane]; conditions: in DMSO
Method: as §1

[4] = compound: OC(C(F)(F)F)(C(F)(F)F)C(O)(C(F)(F)F)C(F)(F)F [Perfluoropinacol]; conditions: in DMSO
Method: as §1

[5] = compound: OCC(F)(F)C(F)(F)C(F)(F)C(F)(F)C(F)(F)C(F)(F)C(F)(F)C(F)(F)C(F)(F)C(F)(F)C(F)(F)F [11:1 Fluorotelomer alcohol]; conditions: in DMSO
Method: as §1

[6] = compound: OCC(F)(F)C(F)(F)C(F)(F)C(F)(F)C(F)(F)C(F)(F)C(F)(F)C(F)(F)CO [1H,1H,10H,10H-Perfluorodecane-1,10-diol]; conditions: in DMSO
Method: as §1

[7] = compound: OCC(F)(F)C(F)(F)C(F)(F)C(F)(F)C(F)(F)C(F)(F)F [6:1 Fluorotelomer alcohol]; conditions: in DMSO
Method: as §1

| Test System | level (log10) ([1]; 6700 nM) | level (log10) ([1]; 20000 nM) | level (log10) ([1]; 60000 nM) | level (log10) [2] | level (log10) ([3]; 6700 nM) | level (log10) ([3]; 20000 nM) | level (log10) ([4]; 6700 nM) | level (log10) ([4]; 20000 nM) | level (log10) ([5]; 1100 nM) | level (log10) ([5]; 3300 nM) | level (log10) ([5]; 10000 nM) | level (log10) ([6]; 6700 nM) | level (log10) ([6]; 20000 nM) | level (log10) ([6]; 60000 nM) | level (log10) ([7]; 6700 nM) | level (log10) ([7]; 20000 nM) | level (log10) ([7]; 60000 nM) |
| --- | --- | --- | --- | --- | --- | --- | --- | --- | --- | --- | --- | --- | --- | --- | --- | --- | --- |
| BF4T:tPA | -0.046 ± 0.013 | -0.0635 ± 0.023 | -0.0465 ± 0.012 | -0.119 | -0.122 ± 0.02 | -0.068 ± 0.018 | -0.028 ± 0.011 | 0.032 ± 0.014 | 0.0015 ± 0.0092 | -0.003 ± 0.0071 | 0.026 ± 0.024 | -0.061 ± 0.016 | -0.164 ± 0.013 | -0.246 | -0.0055 ± 0.016 | -0.013 ± 0.021 | 0.0095 ± 0.029 |
| BF4T:Keratin 8/18 | -0.014 ± 0.0042 | -0.0045 ± 0.00071 | 0.0115 ± 0.015 | 0.024 | -0.0735 ± 0.0035 | -0.127 ± 0.016 | -0.013 ± 0.0099 | -0.036 ± 0.0071 | 0.0025 ± 0.026 | -0.009 ± 0.03 | -0.0075 ± 0.025 | 0.005 ± 0.028 | 0.027 ± 0.018 | -0.024 | -0.0085 ± 0.0092 | -0.0045 ± 0.023 | 0.03 ± 0.05 |
| 4H:SRB | -0.0045 ± 0.019 | -0.0035 ± 0.005 | 0.01 | 0.009 | -0.0255 ± 0.00071 | -0.136 ± 0.0021 | -0.0345 ± 0.015 | -0.13 ± 0.0078 | -0.0105 ± 0.0092 | -0.0195 ± 0.0035 | -0.0005 ± 0.025 | -0.0085 ± 0.011 | -0.026 ± 0.014 | -0.153 | -0.0125 ± 0.005 | -0.006 ± 0.0085 | -0.002 ± 0.014 |
| BF4T:CD54/ICAM-1 | -0.0145 ± 0.013 | -0.026 ± 0.0042 | -0.0285 ± 0.026 | -0.073 | 0.011 ± 0.017 | -0.0745 ± 0.00071 | -0.0015 ± 0.011 | -0.018 ± 0.0028 | -0.0125 ± 0.005 | -0.015 ± 0.018 | -0.0015 ± 0.00071 | -0.031 ± 0.02 | -0.091 ± 0.0071 | -0.138 | -0.0065 ± 0.023 | -0.01 ± 0.016 | -0.005 ± 0.018 |
| BF4T:IL-1alpha | -0.0115 ± 0.013 | -0.0185 ± 0.00071 | 0.015 ± 0.037 | -0.017 | -0.041 | -0.0615 ± 0.011 | 0.0025 ± 0.012 | -0.025 ± 0.0057 | -0.016 ± 0.0014 | -0.0125 ± 0.013 | 0.0025 ± 0.0021 | 0.0005 ± 0.0021 | -0.025 ± 0.023 | -0.035 | -0.0005 ± 0.005 | 0.0035 ± 0.0021 | 0.0005 ± 0.011 |
| BF4T:uPA | -0.0405 ± 0.039 | -0.033 ± 0.025 | -0.023 ± 0.031 | -0.031 | -0.0235 ± 0.00071 | -0.0535 ± 0.047 | -0.0305 ± 0.019 | -0.0365 ± 0.0064 | 0 | -0.005 ± 0.0071 | 0.0015 ± 0.0064 | -0.014 ± 0.017 | -0.029 ± 0.0042 | -0.06 | -0.0155 ± 0.0064 | -0.011 ± 0.018 | -0.023 ± 0.024 |
| LPS:CD62E/E-Selectin | 0.002 ± 0.011 | 0 ± 0.011 | 0.019 ± 0.014 | -0.024 | -0.0755 ± 0.047 | 0.061 ± 0.016 | 0.003 ± 0.0085 | -0.027 ± 0.028 | 0.016 ± 0.0085 | 0.01 ± 0.0099 | 0.015 ± 0.014 | -0.064 ± 0.04 | -0.0475 ± 0.0021 | -0.038 | 0.001 ± 0.018 | -0.013 ± 0.011 | -0.014 ± 0.0071 |
| LPS:CD142/Tissue Factor | 0.0375 ± 0.0035 | 0.0245 ± 0.044 | 0.0085 ± 0.03 | 0.019 | -0.004 ± 0.093 | 0.323 ± 0.0028 | -0.0795 ± 0.0035 | -0.038 ± 0.02 | 0.056 ± 0.0028 | 0.084 ± 0.03 | 0.0995 ± 0.00071 | 0 ± 0.038 | 0.0125 ± 0.069 | -0.035 | -0.0035 ± 0.03 | 0.0215 ± 0.011 | 0.0155 ± 0.016 |
| LPS:CD106/VCAM-1 | -0.029 ± 0.013 | -0.05 ± 0.013 | -0.053 ± 0.0099 | -0.041 | -0.0045 ± 0.011 | -0.023 ± 0.031 | 0.0045 ± 0.013 | -0.0825 ± 0.015 | -0.025 ± 0.0042 | -0.025 ± 0.02 | -0.015 ± 0.0028 | -0.034 ± 0.028 | -0.0485 ± 0.012 | -0.052 | -0.033 ± 0.023 | -0.041 ± 0.016 | -0.023 ± 0.02 |
| 4H:CD106/VCAM-1 | -0.0045 ± 0.035 | -0.023 ± 0.051 | -0.0255 ± 0.026 | -0.052 | -0.009 ± 0.0071 | -0.234 ± 0.04 | -0.043 ± 0.018 | -0.22 ± 0.02 | 0.0285 ± 0.022 | 0.0115 ± 0.057 | 0.024 ± 0.038 | -0.0445 ± 0.011 | -0.049 ± 0.03 | -0.166 | 0.0035 ± 0.033 | -0.0045 ± 0.049 | 0.0195 ± 0.0078 |
| BE3C:CD54/ICAM-1 | -0.016 | 0 ± 0.0014 | 0.019 ± 0.04 | 0.001 | -0.0075 ± 0.0064 | -0.102 ± 0.0064 | -0.003 ± 0.0085 | -0.0095 ± 0.0035 | -0.0245 ± 0.00071 | -0.054 ± 0.0099 | -0.025 ± 0.0028 | 0.004 ± 0.0085 | -0.0305 ± 0.0064 | -0.232 | 0.0055 ± 0.019 | -0.013 ± 0.016 | 0.0065 ± 0.0021 |
| LPS:CD40 | -0.008 ± 0.017 | -0.0285 ± 0.036 | -0.031 ± 0.016 | -0.009 | -0.0095 ± 0.071 | -0.0805 ± 0.083 | -0.0285 ± 0.073 | -0.16 ± 0.03 | 0.0305 ± 0.028 | 0.0205 ± 0.0035 | -0.0275 ± 0.00071 | -0.0225 ± 0.015 | -0.0585 ± 0.037 | -0.095 | 0.053 ± 0.016 | 0.048 ± 0.052 | 0.041 ± 0.0028 |
| 4H:VEGFR2 | 0.019 ± 0.024 | 0.0175 ± 0.026 | 0.016 ± 0.04 | -0.002 | -0.0915 ± 0.0078 | -0.172 ± 0.064 | -0.02 ± 0.023 | -0.138 ± 0.064 | -0.027 ± 0.023 | -0.0135 ± 0.033 | -0.008 ± 0.048 | -0.0455 ± 0.07 | -0.0125 ± 0.0092 | 0.055 | 0.0035 ± 0.042 | -0.005 ± 0.013 | 0.012 ± 0.023 |
| BF4T:CXCL8/IL-8 | -0.0395 ± 0.021 | -0.017 ± 0.028 | -0.004 ± 0.017 | -0.014 | 0.0325 ± 0.028 | 0.114 ± 0.0092 | 0.081 ± 0.024 | 0.0865 ± 0.032 | 0.001 ± 0.0057 | 0.0145 ± 0.037 | 0.028 ± 0.042 | 0.0005 ± 0.0064 | 0.0095 ± 0.00071 | 0.004 | 0.008 ± 0.057 | -0.0085 ± 0.039 | 0.013 ± 0.016 |
| BF4T:PAI-I | -0.0035 ± 0.0064 | -0.0055 ± 0.0035 | 0.007 ± 0.017 | -0.072 | -0.0085 ± 0.0092 | -0.125 ± 0.014 | -0.0315 ± 0.0035 | -0.0845 ± 0.0064 | -0.003 ± 0.011 | -0.003 ± 0.0042 | 0.002 ± 0.027 | -0.021 ± 0.021 | -0.111 ± 0.0021 | -0.156 | -0.001 ± 0.0028 | -0.012 | 0.002 ± 0.021 |
